Measurements: patent publication US12324893B2, “Triptan microporation delivery system” (PassPort Technologies, Inc., priority 2019, dated 2025)

Experiment: in vivo
Settings: rat; for AUC / Cmax: hairless; for Tmax: in vivo
Method: In this study, four groups of hairless rats were tested under the following conditions: (1) Group 1 (3 mg free base API, Suc: 0.5 mg, AA: 1 mg); (2) Group 2 (6 mg free base API, Suc: 0.5 mg, AA: 1 mg); (3) Group 3 (9 mg free base API, Suc: 0.5 mg, AA: 1 mg); and (4) Group 4 (6 mg free base API per 100 μL head of saline).
The given bioavailability of Table 18 is relative bioavailability against SC injection.

AUC (sc, 6 mg): 5380 ng·h/mL | Cmax (sc, 6 mg): 9780 ng/mL | AUC (topical or ocular, 3 mg): 2600 ng·h/mL | Cmax (topical or ocular, 3 mg): 1040 ng/mL | AUC (topical or ocular, 6 mg): 3810 ng·h/mL | Cmax (topical or ocular, 6 mg): 1400 ng/mL | AUC (topical or ocular, 9 mg): 4390 ng·h/mL | Cmax (topical or ocular, 9 mg): 1580 ng/mL | Tmax (topical or ocular, 6 mg): 1.3 h | Tmax (topical or ocular, 9 mg): 1.1 h
SMILES: CNS(=O)(=O)Cc1ccc2[nH]cc(CCN(C)C)c2c1 [Sumatriptan Succinate]
